One series has as its system endogenous SSPN protein with an N-term fusion protein (C2C12 cells). Description: C2C12 HiBiT assay (SSPN-HiBiT myotubes, primary screen). The series is classed as cell-based, murine. The note with it: treated day 2, harvested day 4 of differentiation, concentration not given. The protocol: FIG. 1. Activity of DDL-463, DDL-465 (A) and DDL-472 (B) in HiBiT assay. Comparison of activity of the new compounds with parent compound (OT-9m) and vehicle-treated cells. SSPN-HiBiT myotubes were treated on day 2 and harvested on day 4 of differentiation. R.U.=relative units normalized to protein concentration and vehicle control (DMSO). n=18. **p<0.01, ****p<0.0001, ns-difference is non-significant from the vehicle-treated cells.
Comparison of activity of the new compounds of quinolone series (DDL-494, DDL-495, DDL-496) with parent compound (DDL-449 (aka OT-9m)) and vehicle-treated cells. SSPN-HiBiT myotubes were treated on day 2 and harvested on day 4 of differentiation. R.U.=relative units normalized to protein concentration and vehicle control (DMSO). n=18 for every compound concentration. *p<0.05; **p<0.01, ***p<0.001; ****p<0.0001
Comparison of activity of the new compound of coumarin series (DDL-491) with parent compound (DDL-472) and vehicle-treated cells. SSPN-HiBiT myotubes were treated on day 2 and harvested on day 4 of differentiation. R.U.=relative units normalized to protein concentration and vehicle control (DMSO). n=18 for every compound concentration. *p<0.05; ****p<0.0001
To assess activity of the new molecules, a C2C12 HiBiT assay was used as a primary screen. This assay is based on murine C2C12 cell line expressing endogenous SSPN protein with an N-term fusion protein described previously in WO 2022/055926.
Details on development of HiBiT assay for rapid testing of new analogues in vitro (FIG. 2A, B) are provided in PCT Pub. No. WO 2022/055926.
(HiBiT is a short tag that completes a luciferase, so light tracks the accessible tagged protein.)
With `COc1cc2cc(C(=O)Nc3ccc(C(=O)N4CCCOCC4)cc3)c(=O)[nH]c2cc1OC` [DDL-461], the “SSPN-HiBiT fold change over vehicle” value is on record as 1.1 fold. Take `C#CCN(CC)c1ccc2cc(C(=O)Nc3ccc(C(=O)N4CCCOCC4)cc3)c(=O)oc2c1` [DDL-489]: the “SSPN-HiBiT fold change over vehicle” value came out at 1.2 fold. Same read-out and setting: next, `O=C(Nc1ccc(C(=O)N2CCCOCC2)cc1)c1cc2ccccc2[nH]c1=O` [DDL-462]: about 1 fold; `CC(C)Oc1ccc2[nH]c(=O)c(C(=O)Nc3ccc(C(=O)N4CCCOCC4)cc3)cc2c1` [DDL-762]: 1.4 fold. Turning to `CN(C)c1ccc2cc(C(=O)Nc3ccc(C(=O)N4CCCOCC4)cc3)c(=O)oc2c1` [DDL-484], the “SSPN-HiBiT fold change over vehicle” value stood at 1.1 fold.

In the case of `CC(C)Oc1ccc2cc(C(=O)Nc3ccc(C(=O)N4CCCOCC4)cc3)c(=O)oc2c1` [DDL-481], the “SSPN-HiBiT fold change over vehicle” value was about 0.9 fold. The same measure, in the same setting: next, `O=C(Nc1ccc(C(=O)N2CCCOCC2)cc1)c1cc2ccc(N3CCOCC3)cc2oc1=O` [DDL-482]: about 1 fold.

On to `O=C(Nc1ccc(C(=O)N2CCCOCC2)cc1)c1cc2cc(Br)ccc2[nH]c1=O` [DDL-496], for which the “SSPN-HiBiT fold change over vehicle” value is given as 1.3 fold. As to `O=C(Nc1ccc(C(=O)N2CCCOCC2)cc1)c1cc2ccc(F)cc2[nH]c1=O` [DDL-464], the “SSPN-HiBiT fold change over vehicle” value is about 1 fold. Still for that read-out and setting: then `CC(C)N(c1ccc2cc(C(=O)Nc3ccc(C(=O)N4CCCOCC4)cc3)c(=O)oc2c1)C(C)C` [DDL-491], with 1.4 fold; and `COc1ccc2[nH]c(=O)c(C(=O)NC3=NNC(C(=O)N4CCCOCC4)N3)cc2c1` (stereo not drawn) [DDL-458], with about 1 fold.

Regarding `COc1ccc2cc(C(=O)Nc3ccc(C(=O)N4CCCOCC4)cc3)c(=O)[nH]c2c1` [DDL-460], the “SSPN-HiBiT fold change over vehicle” value is listed as 1.1 fold. Still for that read-out and setting: then `O=C(Nc1ccc(C(=O)N2CCCOCC2)cc1)c1cc2cc(F)ccc2[nH]c1=O` [DDL-463], with 1.4 fold; and `CC(=O)Nc1ccc2[nH]c(=O)c(C(=O)Nc3ccc(C(=O)N4CCCOCC4)cc3)cc2c1` [DDL-476], with about 1 fold. For `COc1ccc2[nH]c(=O)c(C(=O)Nc3c[nH]c(C(=O)N4CCCOCC4)n3)cc2c1` [DDL-459, N-(2-(1,4-oxazepane-4-carbonyl)-1H-imidazol-4-yl)-6-methoxy-2-oxo-1,2-dihydroquinoline-3-carboxamide], the “SSPN-HiBiT fold change over vehicle” value is about 1 fold.

Still in this series, the particulars now being: treated day 2, harvested day 4 of differentiation, vs vehicle.
For the compound `O=C(Nc1ccc(C(=O)N2CCCOCC2)cc1)c1cc2cc(Br)ccc2[nH]c1=O` [DDL-496], the “activity in HiBiT assay” value was “active”. Still for that read-out and setting: next, `CC(C)N(c1ccc2cc(C(=O)Nc3ccc(C(=O)N4CCCOCC4)cc3)c(=O)oc2c1)C(C)C` [DDL-491]: “active”. The same measure, in the same setting: then `O=C(Nc1ccc(C(=O)N2CCCOCC2)cc1)c1cc2cc(F)ccc2[nH]c1=O` [DDL-463], with “exhibit activity”.

The record behind these values is US20260317292A1, “SMALL MOLECULE THERAPY FOR DUCHENNE MUSCULAR DYSTROPHY” (The Regents of the University of California, priority 2023, published 2026).
